Data taken from patent publication US11951190B2, “Use of labeled inhibitors of prostate specific membrane antigen (PSMA), as agents for the treatment of prostate cancer” (DEUTSCHES KREBSFORSCHUNGSZENTRUM, priority 2013, dated 2024).
One block for each compound: values may come before it.

Experiments:
LNCaP cells = assay: Specific cell uptake and internalization; format: cell-based, human; conditions: 45 min
Description: (§1) In order to compare the series of novel compounds the competitive binding affinity and the specific internalization was analyzed using the PSMA expressing cell line LNCaP. To determine specific cellular uptake, cells were blocked with 2-(phosphonomethyl)-pentanedioic acid (PMPA). The inhibition potency was also investigated by the enzyme-based NAALADase assay.
(§2) For binding studies and in vivo experiments LNCaP cells (metastatic lesion of human prostatic adenocarcinoma, ATCC CRL-1740) were cultured in RPMI medium supplemented with 10% fetal calf serum and Glutamax (PAA, Austria). During cell culture, cells were grown at 37° C. in an incubator with humidified air, equilibrated with 5% CO2. The cells were harvested using trypsin-ethylenediaminetetraacetic acid (trypsin-EDTA; 0.25% trypsin, 0.02% EDTA, all from PAA, Austria) and washed with PBS.
To determine the specific cell uptake and internalization, 10^5 cells were seeded in poly-L-lysine coated 24-well cell culture plates 24 h before incubation. After washing, the cells were incubated with 25 nM of the radiolabeled compounds for 45 min at 37° C. and at 4° C., respectively. Specific cellular uptake was determined by competitive blocking with 2-(phosphonomethyl)pentanedioic acid (500 μM final concentration, PMPA, Axxora, Loerrach, Germany). Cellular uptake was terminated by washing 4 times with 1 mL of ice-cold PBS. Cells were subsequently incubated twice with 0.5 mL glycine-HCl in PBS (50 mM, pH=2.8) for 5 min to remove the surface-bound fraction. The cells were washed with 1 mL of ice-cold PBS and lysed using 0.3 N NaOH (0.5 mL). The surface-bound and the internalized fractions were measured in a gamma counter. The cell uptake was calculated as percent of the initially added radioactivity bound to 10^6 cells [% ID/10^6 cells].

[1] = target: T1, PSMA expressing cell line LNCaP (Homo sapiens, UniProt Q04609); assay: Competitive cell binding assay (68Ga-labeled [Glu-urea-Lys(Ahx)]2-HBED-CC radioligand); conditions: LNCaP cells, competition with 68Ga-labeled [Glu-urea-Lys(Ahx)]2-HBED-CC
T1 construct: using the PSMA expressing cell line LNCaP; host or cells: LNCaP
Description: as §1, §2
The competitive cell binding assay and internalization experiments were performed as described previously (Eder et al. 2012).

LNCaP tumor xenografts [2] = assay: Dynamic microPET imaging; format: in vivo, athymic male nude mice; conditions: 68Ga-labeled
Description: Whole-body coronal microPET images of an athymic male nude mice bearing LNCaP tumor xenografts. […] Approximately 15 MBq/mouse were injected. […] The values are expressed as mean SUV (standardized uptake values).
For the microPET studies, 10-25 MBq of the radiolabeled compounds in a volume of 0.15 ml (˜0.5 nmol) were injected via a lateral tail vein into mice bearing LNCaP tumor xenografts. The anesthetized animals (2% sevoflurane, Abbott, Wiesbaden, Germany) were placed in prone position into the Inveon small animal PET scanner (Siemens, Knoxville, Tn., USA) to perform dynamic microPET scans and 20 min-static scans; c.f. FIG. 1, 3, 5-14

LNCaP tumor xenografts [3] = assay: Biodistribution / organ distribution in LNCaP tumor-bearing mice; format: in vivo, BALB/c nu/nu mice; conditions: for PSMA-specific uptake (organ distribution): 68Ga labeled, 1 h post injection of 0.06 nmol, blocking with 2 mg/kg 2-PMPA
Description: FIG. 2: Organ Distribution at 1 h post injection. […] Data are expressed as mean % ID/g tissue±SD (n=3).
The favourable pharmacokinetics led to extremely high tumor-to-background ratios (Tumor/Blood: 1058; Tumor/Muscle: 529) after 24 hours
7- to 8-week-old male BALB/c nu/nu mice (Charles River Laboratories) were subcutaneously inoculated into the right trunk with 5×10^6 cells of LNCaP (in 50% Matrigel; Becton Dickinson, Heidelberg, Germany). The tumors were allowed to grow until approximately 1 cm3 in size. The radiolabeled compounds were injected into the tail vein (approx. 1 MBq per mouse; 0.06 nmol). […] Organs of interest were dissected, blotted dry, and weighed. The radioactivity was measured using a gamma counter and calculated as % ID/g.

[4] = for Ga-68, 25 nM radiolabeled compound
[5] = 177Lu-labeled, 24 h post injection of 0.06 nmol, n=5

T1 sequence (Q04609 whole entry): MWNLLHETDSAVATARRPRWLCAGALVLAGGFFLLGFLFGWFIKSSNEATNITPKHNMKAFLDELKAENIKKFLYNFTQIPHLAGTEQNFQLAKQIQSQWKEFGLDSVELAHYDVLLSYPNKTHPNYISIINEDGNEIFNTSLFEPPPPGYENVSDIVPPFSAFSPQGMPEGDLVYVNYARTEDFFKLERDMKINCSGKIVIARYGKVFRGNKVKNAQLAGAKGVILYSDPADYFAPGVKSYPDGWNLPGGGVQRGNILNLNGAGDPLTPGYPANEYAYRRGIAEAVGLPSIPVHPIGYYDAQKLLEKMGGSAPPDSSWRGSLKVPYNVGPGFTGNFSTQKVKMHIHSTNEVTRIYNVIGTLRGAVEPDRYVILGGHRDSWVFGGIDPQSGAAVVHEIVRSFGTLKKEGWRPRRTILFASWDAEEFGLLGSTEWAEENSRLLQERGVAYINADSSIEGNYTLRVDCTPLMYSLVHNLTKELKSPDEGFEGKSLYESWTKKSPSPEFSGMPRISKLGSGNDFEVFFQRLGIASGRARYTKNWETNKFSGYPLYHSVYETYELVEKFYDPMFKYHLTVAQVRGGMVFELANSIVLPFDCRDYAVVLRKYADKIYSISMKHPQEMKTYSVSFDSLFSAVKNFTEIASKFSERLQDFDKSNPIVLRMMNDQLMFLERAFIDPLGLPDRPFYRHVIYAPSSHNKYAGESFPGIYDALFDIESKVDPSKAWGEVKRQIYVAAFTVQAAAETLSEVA

Structure (SMILES): O=C(O)CCC(NC(=O)NC(CCCCNC(=O)c1ccc(CNC(=O)CN2CCN(CC(=O)O)CCN(CC(=O)O)CCN(CC(=O)O)CC2)cc1)C(=O)O)C(=O)O (stereo not drawn) [MB2]
Internalization (LNCaP cells; [4]): 8.78 ± 3.96 for Ga-68 % IA/10^6 cells
IC50 [1]: 2.75 ± 0.82 nM

Structure (SMILES): O=C(O)CC[C@H](NC(=O)N[C@@H](CCCCNC(=O)c1ccc(CNC(=O)c2ccc(CNC(=O)c3ccc(CNC(=O)CN4CCN(CC(=O)O)CCN(CC(=O)O)CCN(CC(=O)O)CC4)cc3)cc2)cc1)C(=O)O)C(=O)O [MB4]
Internalization (LNCaP cells; [4]): 14.18 ± 0.98 for Ga-68 % IA/10^6 cells
IC50 [1]: 0.74 ± 0.5 nM

Structure (SMILES): O=C(O)CCC(NC(=O)NC(CCCCNC(=O)C1CCC(CNC(=O)CN2CCN(CC(=O)O)CCN(CC(=O)O)CCN(CC(=O)O)CC2)CC1)C(=O)O)C(=O)O (stereo not drawn) [MB22]
IC50 [1]: 52.8 nM

Structure (SMILES): O=C(O)CCC(NC(=O)NC(CCCCNC(=O)C(Cc1ccc2ccccc2c1)NC(=O)CCCCCNC(=O)CN1CCN(CC(=O)O)CCN(CC(=O)O)CCN(CC(=O)O)CC1)C(=O)O)C(=O)O (stereo not drawn) [MB25]
IC50 [1]: 6.64 nM

Structure (SMILES): O=C(O)CC[C@H](NC(=O)N[C@@H](CCCCNC(=O)C1CCC(CNC(=O)C2CCC(CNC(=O)CN3CCN(CC(=O)O)CCN(CC(=O)O)CCN(CC(=O)O)CC3)CC2)CC1)C(=O)O)C(=O)O (stereo partly drawn) [MB31]
IC50 [1]: 91.8 nM

Structure (SMILES): O=C(O)CC[C@H](NC(=O)N[C@@H](CCCCNC(=O)C1CCC(CNC(=O)c2ccc(CNC(=O)CN3CCN(CC(=O)O)CCN(CC(=O)O)CCN(CC(=O)O)CC3)cc2)CC1)C(=O)O)C(=O)O (stereo partly drawn) [MB33]
IC50 [1]: 59.3 nM

Second part, led by results:

IC50 [1]: 10.5 ± 6.06 nM
Structure (SMILES): O=C(O)CCC(NC(=O)NC(CCCCNC(=O)c1ccc(CNC(=O)c2ccc(CNC(=O)CN3CCN(CC(=O)O)CCN(CC(=O)O)CCN(CC(=O)O)CC3)cc2)cc1)C(=O)O)C(=O)O (stereo not drawn) [MB3]

IC50 [1]: 8.67 ± 1.58 nM
Structure (SMILES): O=C(O)CCC(NC(=O)NC(CCCCNC(=O)c1ccc(CNC(=O)c2ccc(CNC(=O)c3ccc(CNC(=O)c4ccc(CNC(=O)CN5CCN(CC(=O)O)CCN(CC(=O)O)CCN(CC(=O)O)CC5)cc4)cc3)cc2)cc1)C(=O)O)C(=O)O (stereo not drawn) [MB10]

IC50 [1]: 12.4 ± 5.1 nM
Structure (SMILES): O=C(O)CC[C@H](NC(=O)N[C@@H](CCCCNC(=O)[C@@H](Cc1ccc2ccccc2c1)NC(=O)[C@H]1CC[C@H](CNC(=O)CN2CCN(CC(=O)O)CCN(CC(=O)O)CCN(CC(=O)O)CC2)CC1)C(=O)O)C(=O)O [MB17.D]

time of maximum kidney uptake (highest point in the time-activity-curve) (LNCaP tumor xenografts [2]; dynamic PET, after injection of the radiotracer): 15 min
PSMA-specific uptake (organ distribution) (LNCaP tumor xenografts [3]; listed as MB 17, 2 mg/kg): high PSMA-specific tumor uptake
kidney uptake (LNCaP tumor xenografts [3]; [5]): 2.13±1.36 % ID/g
liver uptake (LNCaP tumor xenografts [3]; [5]): 0.08±0.03 % ID/g
lung uptake (LNCaP tumor xenografts [3]; [5]): 0.11±0.13 % ID/g
spleen uptake (LNCaP tumor xenografts [3]; [5]): 0.13±0.05 % ID/g
tumor uptake (LNCaP tumor xenografts [3]; [5]): 10.58±4.50 % ID/g
Structure (SMILES): O=C(O)CC[C@H](NC(=O)N[C@@H](CCCCNC(=O)[C@H](Cc1ccc2ccccc2c1)NC(=O)[C@H]1CC[C@H](CNC(=O)CN2CCN(CC(=O)O)CCN(CC(=O)O)CCN(CC(=O)O)CC2)CC1)C(=O)O)C(=O)O [MB17]
Internalization (LNCaP cells; [4]): 17.02 ± 4.36 for Ga-68 % IA/10^6 cells
Internalization (LNCaP cells; for Lu-177, 25 nM radiolabeled compound): 17.51 ± 3.99 for Lu-177 % IA/10^6 cells
background clearance and kidney enrichment in PET diagrams (LNCaP tumor xenografts [2]; after 2 hours): rapid background clearance as well as a substantial reduction of the enrichment in the kidney
PSMA-specific uptake (organ distribution) (LNCaP tumor xenografts [3]; 2 mg/kg): PSMA-specific uptake in the tumor and the kidneys

IC50 [1]: 3.33 nM
Structure (SMILES): O=C(O)CCC(NC(=O)NC(CCCCNC(=O)C(Cc1ccc2ccccc2c1)NC(=O)c1ccc(CNC(=O)CN2CCN(CC(=O)O)CCN(CC(=O)O)CCN(CC(=O)O)CC2)cc1)C(=O)O)C(=O)O (stereo not drawn) [MB24]

IC50 [1]: 26.2 nM
Structure (SMILES): O=C(O)CC[C@H](NC(=O)N[C@@H](CCCCNC(=O)C1CCC(CNC(=O)C(Cc2ccc3ccccc3c2)NC(=O)CN2CCN(CC(=O)O)CCN(CC(=O)O)CCN(CC(=O)O)CC2)CC1)C(=O)O)C(=O)O (stereo partly drawn) [MB35]
